Test results reported in US5223526A, “Pyrazole carboxanilide fungicides and use” (Monsanto Company, priority 1992, dated 1993).

Experiments:
Botrytis cinerea [1] = test: Vine grey mold (grape berries); format: in vivo; conditions: average of six berries, 7-10 days; for pest or weed control at 50 ppm: grape berries treated with 50 ppm, read-out: % DISEASE CONTROL 50 ppm; for pest or weed control at 200 ppm: grape berries treated with 200 ppm, read-out: % DISEASE CONTROL 200 ppm
Method in brief: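 Preventive berry test: compound at 50 or 200 ppm (acetone/water, 0.05% Tween 20) applied one day before inoculation with 10^6 spores/mL Botrytis conidia. After 7-10 days at 20 °C under 12 h light, infected surface area rated; disease control expressed as percent reduction from control mean; repeated-test values averaged.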

Rhizoctonia solani = test: Rice sheath blight; format: in vivo; set-up: scale not given here; conditions: inoculated two days later, rated after 7 days, average of five plants; for Disease Control Rating at 0.5 mg/mL: foliage and soil sprayed with 0.5 mg/mL; for Disease Control Rating at 0.02 mg/mL: foliage and soil sprayed with 0.02 mg/mL; for Disease Control Rating at 0.1 mg/mL: foliage and soil sprayed with 0.1 mg/mL
Method in brief: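 Rice plants 11–15 days old had foliage and soil sprayed with 0.5, 0.1 or 0.02 mg/mL Compound A in water/acetone/Tween 20, then kept in flooded trays. Two days later, rice-grain Rhizoctonia solani inoculum went to plant bases; disease control scored versus untreated after 7 days at 25 °C, high humidity, averaging five plants.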

Botrytis cinerea [2] = test: Eggplant grey mold; format: in vivo; set-up: scale not given here; conditions: inoculated 24 h later, rated after 3-4 days; for Disease Control Rating at 500 ppm: eggplant sprayed with 500 ppm; for Disease Control Rating at 20 ppm: eggplant sprayed with 20 ppm; for Disease Control Rating at 100 ppm: eggplant sprayed with 100 ppm
Method in brief: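 Protective test: compound formulations (2:3 acetone:water, 0.5% Tween 20; 500, 100 or 20 ppm) sprayed on 14-18-day-old plants, with spore inoculum (4×10^6 spore/mL) applied a day later. Disease control rated on Botrytis lesions after 3-4 days at 23 °C and 100% humidity.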

succinate dehydrogenase = molecular target: T1, succinate dehydrogenase (Botrytis cinerea, UniProt A0A384J5E4+A0A384J8V8+A0A384JHJ5); test: Enzyme inhibition: succinate dehydrogenase activity in Botrytis cinerea mitochondria (DCPIP reduction); format: biochemical; conditions: concentration required to inhibit the rate of DCPIP reduction by 50%; Botrytis cinerea isolate Nick mitochondria; read-out: I50 (μM conc.)
T1 construct: succinate-DCPIP reductase assay with KCN
Method in brief: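 Crude mitochondria from Botrytis cinerea isolate Nick mycelia, prepared by bead-beating and differential centrifugation, started reactions. SDH activity followed as DCPIP reduction at 600 nm in 50 mM K-phosphate pH 7.2 with 1 mM KCN, 45 μM DCPIP, 17 mM succinate, 1% acetone. I50 from semilog inhibition plots, corrected for succinate-free rates.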

T1 sequence (A0A384J5E4 1-300): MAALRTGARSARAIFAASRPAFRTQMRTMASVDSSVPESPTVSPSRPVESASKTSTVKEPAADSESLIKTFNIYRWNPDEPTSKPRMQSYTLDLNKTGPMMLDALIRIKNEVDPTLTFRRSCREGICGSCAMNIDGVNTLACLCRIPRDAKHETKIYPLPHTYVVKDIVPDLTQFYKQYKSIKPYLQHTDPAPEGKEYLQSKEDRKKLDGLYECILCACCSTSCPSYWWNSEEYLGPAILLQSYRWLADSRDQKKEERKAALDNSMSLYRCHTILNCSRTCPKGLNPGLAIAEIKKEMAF
T1 sequence (A0A384J8V8 1-189): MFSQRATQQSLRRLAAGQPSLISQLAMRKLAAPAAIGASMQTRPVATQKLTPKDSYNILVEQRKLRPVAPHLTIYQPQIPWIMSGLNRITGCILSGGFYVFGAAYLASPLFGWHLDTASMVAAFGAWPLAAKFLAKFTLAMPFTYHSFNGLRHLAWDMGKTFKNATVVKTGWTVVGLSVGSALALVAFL
T1 sequence (A0A384JHJ5 1-192): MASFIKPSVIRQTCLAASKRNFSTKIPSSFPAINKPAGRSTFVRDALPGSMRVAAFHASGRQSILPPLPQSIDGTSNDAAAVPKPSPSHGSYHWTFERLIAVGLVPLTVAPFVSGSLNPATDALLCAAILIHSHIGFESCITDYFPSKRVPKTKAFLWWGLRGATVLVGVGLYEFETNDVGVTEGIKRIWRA
T1 sequence (A0A384K456 1-647 partner): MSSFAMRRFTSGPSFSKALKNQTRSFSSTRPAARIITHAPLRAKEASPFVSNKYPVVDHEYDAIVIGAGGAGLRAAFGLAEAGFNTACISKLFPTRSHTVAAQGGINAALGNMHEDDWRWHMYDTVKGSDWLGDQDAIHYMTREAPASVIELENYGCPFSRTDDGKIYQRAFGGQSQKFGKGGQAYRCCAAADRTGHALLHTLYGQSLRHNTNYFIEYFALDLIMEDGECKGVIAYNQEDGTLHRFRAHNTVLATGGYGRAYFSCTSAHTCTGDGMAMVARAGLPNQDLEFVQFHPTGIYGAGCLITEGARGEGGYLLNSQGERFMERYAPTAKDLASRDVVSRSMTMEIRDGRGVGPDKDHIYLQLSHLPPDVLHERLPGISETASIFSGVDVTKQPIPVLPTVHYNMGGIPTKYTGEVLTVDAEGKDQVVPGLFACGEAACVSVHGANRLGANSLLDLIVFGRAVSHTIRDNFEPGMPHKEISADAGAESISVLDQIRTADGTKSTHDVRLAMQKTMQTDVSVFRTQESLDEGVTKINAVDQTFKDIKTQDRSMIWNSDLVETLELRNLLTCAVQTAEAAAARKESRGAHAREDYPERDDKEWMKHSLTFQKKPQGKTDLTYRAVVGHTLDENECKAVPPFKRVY

C=CCn1cc(C(=O)Nc2ccccc2C2CCCCC2)c(C(F)F)n1 [Example 14, 1H-pyrazole-4-carboxamide, N-(2-cyclohexylphenyl)-3-(difluoromethyl)-1-(2-propenyl)-]
pest or weed control at 50 ppm (Botrytis cinerea [1]): 0% | pest or weed control at 200 ppm (Botrytis cinerea [1]): 0% | Disease Control Rating at 0.5 mg/mL (Rhizoctonia solani): 1 | Disease Control Rating at 500 ppm (Botrytis cinerea [2]): 0 | IC50 (succinate dehydrogenase): 0.29 µM

O=C(Nc1ccccc1C1CCCCC1)c1c[nH]nc1C(F)F [Example 15, 1H-pyrazole-4-carboxamide, N-(2-cyclohexylphenyl)-3-(difluoromethyl)-]
pest or weed control at 50 ppm (Botrytis cinerea [1]): 36% | pest or weed control at 200 ppm (Botrytis cinerea [1]): 89% | Disease Control Rating at 0.5 mg/mL (Rhizoctonia solani): 0 | Disease Control Rating at 20 ppm (Botrytis cinerea [2]): 2 | Disease Control Rating at 100 ppm (Botrytis cinerea [2]): 3 | Disease Control Rating at 500 ppm (Botrytis cinerea [2]): 2 | IC50 (succinate dehydrogenase): 0.014 µM

Cn1cc(C(=O)Nc2cc(F)ccc2C2CCCCC2)c(C(F)F)n1 [Example 16, 1H-pyrazole-4-carboxamide, N-(2-cyclohexyl-5-fluorophenyl)-3-(difluoromethyl)-1-methyl-]
pest or weed control at 50 ppm (Botrytis cinerea [1]): 15% | pest or weed control at 200 ppm (Botrytis cinerea [1]): 57% | Disease Control Rating at 0.5 mg/mL (Rhizoctonia solani): 1 | Disease Control Rating at 500 ppm (Botrytis cinerea [2]): 1 | IC50 (succinate dehydrogenase): 0.024 µM

Cn1cc(C(=O)Nc2cccc(F)c2C2CCCCC2)c(C(F)F)n1 [Example 17, 1H-pyrazole-4-carboxamide, N-(2-cyclohexyl-3-fluorophenyl)-3-(difluoromethyl)-1-methyl-]
pest or weed control at 50 ppm (Botrytis cinerea [1]): 90% | pest or weed control at 200 ppm (Botrytis cinerea [1]): 95% | Disease Control Rating at 0.5 mg/mL (Rhizoctonia solani): 3 | Disease Control Rating at 20 ppm (Botrytis cinerea [2]): 1 | Disease Control Rating at 100 ppm (Botrytis cinerea [2]): 2 | Disease Control Rating at 500 ppm (Botrytis cinerea [2]): 2 | IC50 (succinate dehydrogenase): 0.0063 µM

Cc1ccc(C2CCCCC2)c(NC(=O)c2cn(C)nc2C(F)(F)F)c1 [Example 18, 1H-pyrazole-4-carboxamide, N-(2-cyclohexyl-5-methylphenyl)-1-methyl-3-(trifluoromethyl)-]
pest or weed control at 50 ppm (Botrytis cinerea [1]): 0% | pest or weed control at 200 ppm (Botrytis cinerea [1]): 0% | Disease Control Rating at 0.5 mg/mL (Rhizoctonia solani): 0 | Disease Control Rating at 500 ppm (Botrytis cinerea [2]): 0 | IC50 (succinate dehydrogenase): 0.031 µM

Cc1cccc(NC(=O)c2cn(C)nc2C(F)(F)F)c1C1CCCCC1 [Example 19, 1H-pyrazole-4-carboxamide, N-(2-cyclohexyl-3-methylphenyl)-1-methyl-3-(trifluoromethyl)-]
pest or weed control at 50 ppm (Botrytis cinerea [1]): 32% | pest or weed control at 200 ppm (Botrytis cinerea [1]): 52% | Disease Control Rating at 0.02 mg/mL (Rhizoctonia solani): 1 | Disease Control Rating at 0.1 mg/mL (Rhizoctonia solani): 3 | Disease Control Rating at 0.5 mg/mL (Rhizoctonia solani): 3 | Disease Control Rating at 20 ppm (Botrytis cinerea [2]): 1 | Disease Control Rating at 100 ppm (Botrytis cinerea [2]): 2 | Disease Control Rating at 500 ppm (Botrytis cinerea [2]): 3 | IC50 (succinate dehydrogenase): 0.028 µM

Cc1cccc(NC(=O)c2cn(C)nc2C(F)F)c1C1CCCCC1 [Example 20, 1H-pyrazole-4-carboxamide, N-(2-cyclohexyl-3-methylphenyl)-3-(difluoromethyl)-1-methyl-]
pest or weed control at 50 ppm (Botrytis cinerea [1]): 78% | pest or weed control at 200 ppm (Botrytis cinerea [1]): 81% | Disease Control Rating at 0.02 mg/mL (Rhizoctonia solani): 2 | Disease Control Rating at 0.1 mg/mL (Rhizoctonia solani): 3 | Disease Control Rating at 0.5 mg/mL (Rhizoctonia solani): 3 | Disease Control Rating at 20 ppm (Botrytis cinerea [2]): 1 | Disease Control Rating at 100 ppm (Botrytis cinerea [2]): 2 | Disease Control Rating at 500 ppm (Botrytis cinerea [2]): 3 | IC50 (succinate dehydrogenase): 0.014 µM
